Assay results as given in patent US20180325151A1, “METHOD OF PRODUCING INSTANT GINSENG CHICKEN SOUP PRODUCT” (HARIM CORPORATION, priority 2017, published 2018).

What was measured:
[1] = test system: colon bacteria; experiment: Microorganism growth inhibition: number of colon bacteria on Chromocult medium; type: cell-based; settings: time 24 (hours); stored at 25° C.; ND = Not observed
Method: (§1) A chicken in instant ginseng chicken soup (product of Harim) was boiled, washed twice with cold water, and then dehydrated for 1 minute. 10 g of boiled instant ginseng chicken soup was dipped in 100 ml of solution for 30 seconds, dehydrated for 30 seconds on a strainer, held in a petri dish, and then stored at 25° C. For counting the total number of bacteria, the number of colonies resulting from culturing for 48 hours at 37° C. using a plate count agar was counted and indicated with colony forming unit (CFU)/ml. For counting the number of colon bacteria, the experiment was conducted in the same way for counting the total number of bacteria using a Chromocult (merck) medium. In this case, distilled water as a control group and (F)rhodinic acid were used.

[2] = test system: total number of bacteria; experiment: Microorganism growth inhibition: total number of bacteria on plate count agar; type: cell-based; settings: boiled soup chicken dipped 30 seconds in solution, stored at 25° C.
Method: as §1

CC(C)=CCCC(C)CC(=O)O (centres unmarked) [F (rhodinic acid), rhodinic acid]
Number of colon bacteria [1]: no colon bacteria were detected
Total number of bacteria ([2]; time 0): 6.7 × 10^2 CFU/ml
Total number of bacteria ([2]; time 18): 10 × 10^5 CFU/ml
Total number of bacteria ([2]; time 24 (hours)): 8.9 × 10^6 CFU/ml
Total number of bacteria ([2]; time 24 (hours), listed as (F)rhodinic acid): up to 10^6 CFU/ml
